ChEMBL document CHEMBL1833882, “Preparation and antibacterial evaluation of decarboxylated fluoroquinolones” (2011)
Values after ≈ are worked out from the molar mass of the structure shown.

system: Staphylococcus aureus; assay: Antibacterial activity against methicillin-resistant Staphylococcus aureus 1094 after 18 hrs by broth dilution method; type: functional; settings: Staphylococcus aureus, 1094, 18 h

SMILES | MIC
O=CN1CCN(c2cc3c(cc2F)c(=O)c(C(=O)O)cn3C2CC2)CC1 | 40 µg/mL (≈ 111 µM)
CCn1ccc(=O)c2cc(F)c(N3CCN(C=O)CC3)cc21 | > 80 µg/mL
CCN1CCN(c2cc3c(cc2F)c(=O)ccn3C2CC2)CC1 | > 80 µg/mL

system: Pseudomonas aeruginosa; assay: Antibacterial activity against Pseudomonas aeruginosa PAO1 harboring oprM deltamexAB after 18 hrs by broth dilution method; type: functional; settings: PAO1, 18 h

SMILES | MIC
O=CN1CCN(c2cc3c(cc2F)c(=O)c(C(=O)O)cn3C2CC2)CC1 | ≤ 0.078 µg/mL
CCn1ccc(=O)c2cc(F)c(N3CCN(C=O)CC3)cc21 | 80 µg/mL (≈ 264 µM)
CCN1CCN(c2cc3c(cc2F)c(=O)ccn3C2CC2)CC1 | > 80 µg/mL

system: Pseudomonas aeruginosa; assay: Antibacterial activity against Pseudomonas aeruginosa PAO1 ATCC BAA-47 after 18 hrs by broth dilution method; type: functional; settings: PAO1 ATCC BAA-47, 18 h

SMILES | MIC
O=CN1CCN(c2cc3c(cc2F)c(=O)c(C(=O)O)cn3C2CC2)CC1 | 10 µg/mL (≈ 27.8 µM)
CCn1ccc(=O)c2cc(F)c(N3CCN(C=O)CC3)cc21 | > 80 µg/mL
CCN1CCN(c2cc3c(cc2F)c(=O)ccn3C2CC2)CC1 | > 80 µg/mL

system: Escherichia coli; assay: Antibacterial activity against Escherichia coli 700 expressing TolC after 18 hrs by broth dilution method; type: functional; settings: Escherichia coli, 700, 18 h

SMILES | MIC
O=CN1CCN(c2cc3c(cc2F)c(=O)c(C(=O)O)cn3C2CC2)CC1 | 0.313 µg/mL (≈ 0.871 µM)
CCn1ccc(=O)c2cc(F)c(N3CCN(C=O)CC3)cc21 | 40 µg/mL (≈ 132 µM)
CCN1CCN(c2cc3c(cc2F)c(=O)ccn3C2CC2)CC1 | > 80 µg/mL

system: Enterococcus faecalis; assay: Antibacterial activity against vancomycin-resistant Enterococcus faecalis ATCC 51575 after 18 hrs by broth dilution method; type: functional; settings: ATCC 51575, 18 h

SMILES | MIC
O=CN1CCN(c2cc3c(cc2F)c(=O)c(C(=O)O)cn3C2CC2)CC1 | 2.5 µg/mL (≈ 6.96 µM)
CCn1ccc(=O)c2cc(F)c(N3CCN(C=O)CC3)cc21 | > 80 µg/mL
CCN1CCN(c2cc3c(cc2F)c(=O)ccn3C2CC2)CC1 | > 80 µg/mL

system: Escherichia coli; assay: Antibacterial activity against TolC deficient Escherichia coli 701 after 18 hrs by broth dilution method; type: functional; settings: Escherichia coli, 701, 18 h

SMILES | MIC
O=CN1CCN(c2cc3c(cc2F)c(=O)c(C(=O)O)cn3C2CC2)CC1 | ≤ 0.078 µg/mL
CCn1ccc(=O)c2cc(F)c(N3CCN(C=O)CC3)cc21 | 40 µg/mL (≈ 132 µM)
CCN1CCN(c2cc3c(cc2F)c(=O)ccn3C2CC2)CC1 | > 80 µg/mL

system: Burkholderia cepacia; assay: Antibacterial activity against Burkholderia cepacia ATCC 39277 after 18 hrs by broth dilution method; type: functional; settings: ATCC 39277, 18 h

SMILES | MIC
O=CN1CCN(c2cc3c(cc2F)c(=O)c(C(=O)O)cn3C2CC2)CC1 | 0.313 µg/mL (≈ 0.871 µM)
CCn1ccc(=O)c2cc(F)c(N3CCN(C=O)CC3)cc21 | > 80 µg/mL
CCN1CCN(c2cc3c(cc2F)c(=O)ccn3C2CC2)CC1 | > 80 µg/mL

system: Stenotrophomonas maltophilia; assay: Antibacterial activity against Stenotrophomonas maltophilia ATCC 13637 after 18 hrs by broth dilution method; type: functional; settings: ATCC 13637, 18 h

SMILES | MIC
O=CN1CCN(c2cc3c(cc2F)c(=O)c(C(=O)O)cn3C2CC2)CC1 | 1.25 µg/mL (≈ 3.48 µM)
CCn1ccc(=O)c2cc(F)c(N3CCN(C=O)CC3)cc21 | > 80 µg/mL
CCN1CCN(c2cc3c(cc2F)c(=O)ccn3C2CC2)CC1 | > 80 µg/mL

system: Bacillus subtilis; assay: Antibacterial activity against Bacillus subtilis BD54 after 18 hrs by broth dilution method; type: functional; settings: BD54, 18 h

SMILES | MIC
O=CN1CCN(c2cc3c(cc2F)c(=O)c(C(=O)O)cn3C2CC2)CC1 | 0.117 µg/mL (≈ 0.326 µM)
CCn1ccc(=O)c2cc(F)c(N3CCN(C=O)CC3)cc21 | > 80 µg/mL
CCN1CCN(c2cc3c(cc2F)c(=O)ccn3C2CC2)CC1 | > 80 µg/mL

system: Staphylococcus aureus; assay: Antibacterial activity against Staphylococcus aureus ATCC 25923 after 18 hrs by broth dilution method; type: functional; settings: ATCC 25923, 18 h

SMILES | MIC
O=CN1CCN(c2cc3c(cc2F)c(=O)c(C(=O)O)cn3C2CC2)CC1 | 0.313 µg/mL (≈ 0.871 µM)
CCn1ccc(=O)c2cc(F)c(N3CCN(C=O)CC3)cc21 | > 80 µg/mL
CCN1CCN(c2cc3c(cc2F)c(=O)ccn3C2CC2)CC1 | > 80 µg/mL

system: Bacillus anthracis; assay: Antibacterial activity against Bacillus anthracis Sterne after 18 hrs by broth dilution method; type: functional; settings: not given

SMILES | MIC
O=CN1CCN(c2cc3c(cc2F)c(=O)c(C(=O)O)cn3C2CC2)CC1 | 0.235 µg/mL (≈ 0.654 µM)
CCn1ccc(=O)c2cc(F)c(N3CCN(C=O)CC3)cc21 | > 80 µg/mL
CCN1CCN(c2cc3c(cc2F)c(=O)ccn3C2CC2)CC1 | > 80 µg/mL

system: Burkholderia cepacia; assay: Antibacterial activity against Burkholderia cepacia ATCC 55792 after 18 hrs by broth dilution method; type: functional; settings: ATCC 55792, 18 h

SMILES | MIC
O=CN1CCN(c2cc3c(cc2F)c(=O)c(C(=O)O)cn3C2CC2)CC1 | 1.25 µg/mL (≈ 3.48 µM)
CCn1ccc(=O)c2cc(F)c(N3CCN(C=O)CC3)cc21 | > 80 µg/mL
CCN1CCN(c2cc3c(cc2F)c(=O)ccn3C2CC2)CC1 | > 80 µg/mL

system: Staphylococcus aureus; assay: Antibacterial activity against Staphylococcus aureus ATCC 25923 after 16 to 18 hrs by agar dilution method; type: functional; settings: not given

SMILES | MIC
O=CN1CCN(c2cc3c(cc2F)c(=O)c(C(=O)O)cn3C2CC2)CC1 | 0.5 µg/mL (≈ 1.39 µM)
CCn1ccc(=O)c2cc(F)c(N3CCN(C=O)CC3)cc21 | > 64 µg/mL
CCN1CCN(c2cc3c(cc2F)c(=O)ccn3C2CC2)CC1 | > 64 µg/mL

system: Enterococcus faecalis; assay: Antibacterial activity against Enterococcus faecalis ATCC 29212 after 16 to 18 hrs by agar dilution method; type: functional; settings: not given

SMILES | MIC
O=CN1CCN(c2cc3c(cc2F)c(=O)c(C(=O)O)cn3C2CC2)CC1 | 1 µg/mL (≈ 2.78 µM)
CCn1ccc(=O)c2cc(F)c(N3CCN(C=O)CC3)cc21 | > 64 µg/mL
CCN1CCN(c2cc3c(cc2F)c(=O)ccn3C2CC2)CC1 | > 64 µg/mL

system: Escherichia coli; assay: Antibacterial activity against Escherichia coli ATCC 29425 after 18 hrs by broth dilution method; type: functional; settings: ATCC 29425, 18 h

SMILES | MIC
O=CN1CCN(c2cc3c(cc2F)c(=O)c(C(=O)O)cn3C2CC2)CC1 | 0.5 µg/mL (≈ 1.39 µM)
CCn1ccc(=O)c2cc(F)c(N3CCN(C=O)CC3)cc21 | 40 µg/mL (≈ 132 µM)
CCN1CCN(c2cc3c(cc2F)c(=O)ccn3C2CC2)CC1 | > 80 µg/mL

system: Escherichia coli; assay: Antibacterial activity against Escherichia coli ATCC 29425 after 16 to 18 hrs by agar dilution method; type: functional; settings: not given

SMILES | MIC
O=CN1CCN(c2cc3c(cc2F)c(=O)c(C(=O)O)cn3C2CC2)CC1 | 0.5 µg/mL (≈ 1.39 µM)
CCn1ccc(=O)c2cc(F)c(N3CCN(C=O)CC3)cc21 | > 64 µg/mL
CCN1CCN(c2cc3c(cc2F)c(=O)ccn3C2CC2)CC1 | > 64 µg/mL

system: Klebsiella pneumoniae; assay: Antibacterial activity against Klebsiella pneumoniae ATCC 700603 after 18 hrs by broth dilution method; type: functional; settings: ATCC 700603, 18 h

SMILES | MIC
O=CN1CCN(c2cc3c(cc2F)c(=O)c(C(=O)O)cn3C2CC2)CC1 | 5 µg/mL (≈ 13.9 µM)
CCn1ccc(=O)c2cc(F)c(N3CCN(C=O)CC3)cc21 | > 80 µg/mL
CCN1CCN(c2cc3c(cc2F)c(=O)ccn3C2CC2)CC1 | > 80 µg/mL

system: Acinetobacter baumannii; assay: Antibacterial activity against Acinetobacter baumannii ATCC 19606 after 18 hrs by broth dilution method; type: functional; settings: ATCC 19606 = CIP 70.34 = JCM 6841, 18 h

SMILES | MIC
O=CN1CCN(c2cc3c(cc2F)c(=O)c(C(=O)O)cn3C2CC2)CC1 | 2.5 µg/mL (≈ 6.96 µM)
CCn1ccc(=O)c2cc(F)c(N3CCN(C=O)CC3)cc21 | > 80 µg/mL
CCN1CCN(c2cc3c(cc2F)c(=O)ccn3C2CC2)CC1 | > 80 µg/mL

system: Enterococcus faecalis; assay: Antibacterial activity against Enterococcus faecalis ATCC 29212 after 18 hrs by broth dilution method; type: functional; settings: ATCC 29212, 18 h

SMILES | MIC
O=CN1CCN(c2cc3c(cc2F)c(=O)c(C(=O)O)cn3C2CC2)CC1 | 0.625 µg/mL (≈ 1.74 µM)
CCn1ccc(=O)c2cc(F)c(N3CCN(C=O)CC3)cc21 | > 80 µg/mL
CCN1CCN(c2cc3c(cc2F)c(=O)ccn3C2CC2)CC1 | > 80 µg/mL

system: Klebsiella pneumoniae; assay: Antibacterial activity against Klebsiella pneumoniae ATCC 13882 after 18 hrs by broth dilution method; type: functional; settings: ATCC 13882, 18 h

SMILES | MIC
O=CN1CCN(c2cc3c(cc2F)c(=O)c(C(=O)O)cn3C2CC2)CC1 | 0.156 µg/mL (≈ 0.434 µM)
CCn1ccc(=O)c2cc(F)c(N3CCN(C=O)CC3)cc21 | > 80 µg/mL
CCN1CCN(c2cc3c(cc2F)c(=O)ccn3C2CC2)CC1 | > 80 µg/mL
